Experiment [1] is described as follows: series of assays of Examples II and III for potency and selectivity. From the text:
Peptides of the RGDNTic (SEQ ID NO: 56) pharmacophore group are characterized, in general, as having increased potency, whereas the peptides of the pharmacophore RGDDV (SEQ ID NO: 1) group generally have higher receptor selectivity. […] As used herein, the term "potency" or "potent" means that a peptide of the invention is active at a relatively low concentration in the assays described in Examples II and III. A potent peptide of the invention can be identified, for example, using the assays described in Examples II and III.
The present invention also provides a series of in vitro and in vivo assays useful for screening a panel of peptides in order to identify peptides that can reduce or inhibit bone resorption or that can alter integrin binding such as αv β3 integrin receptor-mediated binding. Such peptides can include, for example, peptides within the pharmacophore groups exemplified herein or peptides within other pharmacophore groups. The series of assays disclosed herein is particularly useful for determining the selectivity and potency of a peptide for reducing or inhibiting bone resorption. The selectivity of a peptide for an integrin receptor involved in osteoclast binding to bone can be determined, for example, using the integrin receptor assays and cell attachment and detachment assays described herein. Use of cell-based assays in conjunction with receptor-based assays is informative because the receptor ELISAs provide useful information regarding the binding characteristics of a particular peptide toward a particular integrin and because the cell-based assays confirm that those characteristics are relevant to the αv β3 receptor or to bone resorption.

The target in a further experiment is T1, α5 β1 (FnR) (Homo sapiens, UniProt P05556+P08648).
T1 construct: Fibronectin receptor (FnR) was purified from 100 mM octyl-glucopyranoside-extracted human placenta; from tissue
The experiment is described as follows: α5 β1 ELISA (competitive). It counts as binding. Particulars: comparison of receptor ELISAs. As for the experimental part: Peptide binding to purified human α5 β1 (FnR) also as determined using a competitive ELISA. In these assays, […] was immobilized to the wells and the binding of solubilized FnR in the presence of various concentrations of a peptide analogue was determined using a mouse monoclonal antibody to human β1 (clone P4C10; Gibco) and specific binding was visualized using a second antibody.
Microtiter wells were coated at RT by adding 100 μl of 2 μg/ml human Fn in TBS and incubating the plates overnight at 4° C. Following incubation, the plates were washed 3× with TBS/"TWEEN 20". RGD peptides were diluted in TBS containing 20 mM OG and 2 mM MnCl2 and 50 μl was added to wells at 10-fold serial dilutions. FnR was diluted in the same buffer and 50 μl was added to each well.
The plates were incubated for 3 hr at RT and washed with 300 μl TBS/"TWEEN 20". Bound receptor was incubated with 100 μl of the monoclonal anti-β1 antibody for 2 hr, then washed 3× with TBS/"TWEEN 20". […] The amount of bound second antibody was determined as described above.
The IC50 values for various RGD peptides were calculated by determining the concentration of a peptide that inhibited binding of Vn to αv β5 or αv β3 or of Fn to α5 β1 by 50%. The results of these assays are shown in FIG. 2 (columns designated "Receptor Assays").

For experiment [2] the following is noted: Fisher et al. 1993; cited from earlier work.
Another experiment has as its system osteoclasts. Particulars: Sato et al. 1990; EP 437,367; cited from earlier work.
The target in the next experiment is T2, αv β3 receptor (Homo sapiens, UniProt P05106+P06756).
T2 construct: The αv β3 receptor was purified from octyl-glucopyranoside-extracted human placenta; from tissue
The experiment is classed as binding. Particulars: comparison of IC50 values of αv β3 ELISA / JY cells with αv β5 and α5 β1 ELISAs. As for the experimental part:
Peptide binding to purified αv β3 receptor was determined by using a competitive ELISA, in which αv β3 receptor was immobilized and the binding of solubilized VN, in the presence of various concentrations of peptide analogue, was detected using a monoclonal mouse IgG anti-VN antibody and a labelled anti-mouse IgG conjugate.
96 well microtiter plates were coated overnight at RT with 100 μl/well of αv β3 receptor (0.5 μg/ml in 1×TBS, 4 mM octylglucoside, 1 mM CaCl2). The wells were blocked with 200 μl/well of 1% BSA in 1×TBS, 1 mM CaCl2 for at least 30 min. The plates were washed 2× with 1×TBS, 1 mM CaCl2. 50 μl peptide in 1×TBS, 1 mM CaCl2, 0.05% "TWEEN 20" (polyoxyethylenesorbitan monolaurate) was added in 10-fold serial dilutions. 50 μl of Vn in the same buffer then was added to each well.
The plates were incubated for 3 hr at RT, then washed 3× with 1×TBS, 0.05% "TWEEN 20". 100 μl of 8E6 (Telios) diluted to 1:6000 in 1×TBS, 0.05% "TWEEN 20" was added to the wells and the plates were incubated for 1 hr at RT. Plates were washed 3× with 1×TBS, 0.05% "TWEEN 20". Affinity purified goat anti-mouse IgG conjugated to horseradish peroxidase (100 μl/well; BioRad; Hercules Calif.) was added to each well and incubated for 1 hr at RT. Plates were washed 3× with 1×TBS, 0.05% "TWEEN 20". 100 μl/well of substrate mixture (10 mg O-phenylenediamine in 25 ml 0.1M citrate-phosphate buffer, pH 5.0, 6 μl 30% H2 O2) was added to the plates and allowed to develop. The development process was stopped by adding 50 μl to 4N H2 SO4 to each well. The plates were read at 490 nm and the data analyzed by four parameter fit.

The conditions of experiment [3]: Choi et al. 1994; cited from earlier work.
Experiment [4] is described as follows: parathyroid hormone-induced hypercalcemia in mice. The experiment is classed as in vivo, Swiss-Webster mice. The conditions noted are these: parathyroidectomized mice, 0.2 mg PTH/kg i.v., peptide infused 4 hr. From the text: Parathyroid hormone (PTH) activates osteoclasts, which are involved in bone resorption. Associated with the increased osteoclast activity is an increase in serum calcium. The PTH-induced hypercalcemia assay measures the level of serum calcium, which is an indication of bone resorption in a subject (Fischer et al., Endocrinology 132:1411-1413 (1993), which is incorporated herein by reference).
Swiss-Webster mice, which had been parathyroidectomized two weeks prior to beginning the assay, were obtained from Taconic Lab Animals and Services (Germantown N.Y.). Femoral vein catheters (PE-50 fused with PE10 polyethylene tubing; Becton Dickinson; Parsippany, N.J.) were installed in the mice, flushed and locked with heparinized saline (1:10), sutured to adjacent muscle and internalized within the inguinal space of the incision before closing the incision with wound clips. […]
The experiment was initiated by feeding the mice a calcium-deficient diet overnight, then injecting the mice the following morning with a bolus of 0.2 mg PTH/kg (hPTH 1-34; Bachem; Torrance Calif.), intravenously. […] Various doses of a peptide or vehicle were infused into an animal for 4 hr, then ionized serum calcium again was measured. […] Serum calcium measurements were expressed as the difference between the value 30 min before the PTH pulse and 4 hr after peptide infusion was started. […]

“Also recorded” adds a separate entry of the source. Where a SMILES comes first, the peptide text is derived from it. Bridges are numbered along the chain shown (N, C = ends). [ ]: non-standard residue; d: D form. Tic = O=C(O)[C@@H]1Cc2ccccc2CN1; Pen = CC(C)(S)[C@H](N)C(=O)O; Mpa = O=C(O)CCS

In the case of `CC(=O)N[C@@H]1C(=O)N[C@@H](Cc2ccccc2)C(=O)N[C@@H](C)C(=O)N[C@@H](CCCNC(=N)N)C(=O)NCC(=O)N[C@@H](CC(=O)O)C(=O)N[C@@H](CC(N)=O)C(=O)N2CCC[C@H]2C(=O)N[C@H](C(N)=O)CSSC1(C)C` [peptide 214] (Ac-[Pen]FARGDNPC-NH2; disulfide 1-9), the “potency (active at a relatively low concentration)” value in experiment [1] (summary of assays) was “particularly potent”.
For `C[C@@H]1NC(=O)[C@H](CCCNC(=N)N)NC(=O)CNC(=O)CC[C@@H](C(N)=O)NC(=O)[C@@H]2CCCN2C(=O)[C@H](CC(N)=O)NC(=O)[C@H](CC(=O)O)NC(=O)CNC(=O)[C@H](CCCNC(=N)N)NC1=O` [compound 390] (GRARGDNPE-NH2; lactam N-9), the “selectivity toward α5 β1 versus αv β5” value at α5 β1 (FnR) was “more selective toward α5 β1 than toward αv β5”.
Take echistatin: in experiment [2], the “bone resorption in vivo” value is reported as “inhibits bone resorption”. In the experiment with osteoclasts, the “bone resorption in vitro” value is listed as “inhibits bone resorption in vitro”.
Consider `CC(=O)N[C@H]1CSSC[C@@H](C(N)=O)NC(=O)[C@@H]2Cc3ccccc3CN2C(=O)[C@H](CO)NC(=O)[C@H](CC(=O)O)NC(=O)CNC(=O)[C@H](CCCNC(=N)N)NC1=O` [compound 812, Ac-CRGDS(Tic)C-NH2] (Ac-CRGDS[Tic]C-NH2; disulfide 1-7), for which the “activity of minimal-element peptides (FIG. 2)” value in experiment [1] is reported as “demonstrate activity”. The “potency (active at a relatively low concentration)” value in experiment [1] (summary of assays) is listed as “particularly potent”.
In the case of `CC(=O)N[C@H]1CSSC(C)(C)[C@@H](C(N)=O)NC(=O)[C@@H]2CCCN2C(=O)[C@H](CC(N)=O)NC(=O)[C@H](CC(=O)O)NC(=O)CNC(=O)[C@H](CCCNC(=N)N)NC1=O` [compound 228] (Ac-CRGDNP[Pen]-NH2; disulfide 1-7), at αv β3 receptor, the “receptor selectivity for αv β3 as compared to αv β5 and α5 β1” value (from here on “receptor selectivity for αv β3”) is “particularly receptor selective”.
Consider G(Pen)GRGDSPCA, for which the neointimal hyperplasia entry in experiment [3] was “can inhibit neointimal hyperplasia”.
As for `CC(C)[C@@H]1NC(=O)[C@H](CC(=O)O)NC(=O)[C@H](CC(=O)O)NC(=O)CNC(=O)[C@H](CCCNC(=N)N)NC(=O)[C@H](C)NC(=O)[C@H](CCCNC(=N)N)NC(=O)[C@@H](NC(=O)CN)C(C)(C)SSC[C@@H](C(=O)N[C@@H](C)C(=O)O)NC1=O` [compound 138] (H-G[Pen]RARGDDVCA-OH; disulfide 2-10), the “receptor selectivity for αv β3” value at αv β3 receptor is given as “particularly receptor selective”.
Regarding `N=C(N)NCCC[C@@H]1NC(=O)CC[C@@H](C(N)=O)NC(=O)[C@@H]2CCCN2C(=O)[C@H](CO)NC(=O)[C@H](CC(=O)O)NC(=O)CNC1=O` [compound 825] (RGDSPE-NH2; lactam N-6), on α5 β1 (FnR), the “selectivity toward α5 β1 versus αv β5” value is “more selective toward α5 β1 than toward αv β5”.
Same read-out and setting: under `C[C@H](NC(=O)[C@@H]1CSSC(C)(C)[C@H](NC(=O)CN)C(=O)N[C@@H](C)C(=O)N[C@@H](C)C(=O)N[C@@H](CCCNC(=N)N)C(=O)NCC(=O)N[C@@H](CC(=O)O)C(=O)N[C@@H](CC(N)=O)C(=O)N2CCC[C@H]2C(=O)N1)C(=O)O` [compound 310] (H-G[Pen]AARGDNPCA-OH; disulfide 2-10) stands “more selective toward α5 β1 than toward αv β5”.
For `C[C@@H]1NC(=O)[C@H](C)NC(=O)[C@@H](NC(=O)CN)C(C)(C)SSC[C@@H](C(N)=O)NC(=O)[C@H]([C@@H](C)O)NC(=O)[C@H](CC(=O)O)NC(=O)[C@H](CC(=O)O)NC(=O)CNC(=O)[C@H](CCCNC(=N)N)NC1=O` [compound 186] (H-G[Pen]AARGDDTC-NH2; disulfide 2-10), the “receptor selectivity for αv β3” value at αv β3 receptor is given as “particularly receptor selective”.
For `CC(C)[C@@H]1NC(=O)[C@H](CC(=O)O)NC(=O)[C@H](CC(=O)O)NC(=O)CNC(=O)[C@H](CCCNC(=N)N)NC(=O)CNC(=O)C[C@@H](C(N)=O)NC1=O` [peptide 368] (GRGDDVD-NH2; lactam N-7), the “receptor selectivity for αv β3” value at αv β3 receptor was “receptor selective for αv β3; also recorded: selective peptide; also recorded: particularly receptor selective”. Besides, the “both potent and selective” value in experiment [1] (summary of assays) was “both potent and selective”.
Regarding `CC(C)[C@@H]1NC(=O)[C@H](CC(=O)O)NC(=O)[C@H](CC(=O)O)NC(=O)CNC(=O)[C@H](CCCNC(=N)N)NC(=O)CCSSC[C@@H](C(N)=O)NC1=O` [compound 191] ([Mpa]RGDDVC-NH2; disulfide 1-7), the “PTH-induced rise in serum ionized calcium” value in experiment [4] is “decreased the PTH-induced rise in serum ionized calcium in a dose responsive manner”.
As for `C[C@H](NC(=O)[C@@H]1CSSC(C)(C)[C@H](NC(=O)CN)C(=O)N[C@@H](CCCNC(=N)N)C(=O)N[C@@H](C)C(=O)N[C@@H](CCCNC(=N)N)C(=O)NCC(=O)N[C@@H](CC(=O)O)C(=O)N[C@@H](CC(N)=O)C(=O)N2CCC[C@H]2C(=O)N1)C(=O)O` [compound 100] (H-G[Pen]RARGDNPCA-OH; disulfide 2-10), the “selectivity toward α5 β1 versus αv β5” value at α5 β1 (FnR) is “more selective toward α5 β1 than toward αv β5”.
